From US20170296570A1, “High Drug Load Tablets Comprising Sofosbuvir” (Sandoz AG, priority 2014, published 2017)

Key:
[1] = Determination of the moisture stability of polymorphic forms of sofosbuvir and amorphous sofosbuvir (humidity chamber, XRPD before and after); assay type: physicochemical; conditions: for XRPD analysis, sample after storage at 40° C./75% RH for 18 h / Visual aspect, sample after storage at 40° C./75% RH for 18 h: after 18 h at 40° C./75% RH in humidity chamber; for Visual aspect, sample after storage at 40° C./75% RH for 18 h: footnote: gel/gum = sample deliquesced; for Visual aspect, sample before storage at 40° C./75% RH / XRPD analysis, sample before storage at 40° C./75% RH: 30 mg sample
Description: Even more precisely, the moisture stability of the polymorphic form is defined as the amount in mg of the polymorphic form which is present after an exposure of an amount of 30 mg of the polymorphic form to a relative humidity of (75±1) % at a temperature of (40±1)° C. for an exposure time of (18±1) hours in a humidity chamber, relative to the amount of 30 mg of the polymorphic form before said exposure, as determined via X-ray powder diffraction pattern analysis at a temperature in the range of from 15 to 25° C. with Cu-Kalpha1,2 radiation having a wavelength of 0.15419 nm of the polymorphic form before the exposure and via said X-ray powder diffraction pattern analysis after the exposure.
30 mg of a given polymorphic form of sofosbuvir or of amorphous sofosbuvir prepared according to Reference Examples 1 to 4 were analyzed via XRPD as described in Reference Example 6. Then, these polymorphic forms of sofosbuvir or of amorphous sofosbuvir were exposed to an atmosphere having a relative humidity (RH) of 75% and a temperature of 40° C. for 18 hours in a humidity chamber and analyzed via XRPD as described in Reference Example 6.
XRPD patterns were obtained with an X'Pert PRO diffractometer (PANalytical, Almelo, The Netherlands) equipped with a theta/theta coupled goniometer in transmission geometry, pro-grammable XYZ stage with well plate holder, Cu-Kalpha1,2 radiation source (wavelength 0.15419 nm) with a focusing mirror, a 0.5° divergence slit, a 0.02° soller slit collimator and a 0.5° anti-scattering slit on the incident beam side, a 2 mm anti-scattering slit, a 0.02° soller slit collimator, a Ni-filter and a solid state PIXcel detector on the diffracted beam side. The diffractogram was recorded at room temperature at a tube voltage of 40 kV, tube current of 40 mA, applying a stepsize of 0.013° 2-theta with 40 sec per step in the angular range of 2° to 40° 2-theta. A typical precision of the 2-theta values is in the range of ±0.2° 2-theta. Thus, a diffraction peak that appears for example at 9.4° 2-theta can appear between 9.2 and 9.6° 2-theta on most X-ray diffractometers under standard conditions.

[2] = 40° C., relative humidity 75%; cited from earlier work

CC(C)OC(=O)[C@H](C)N[P@](=O)(OC[C@H]1O[C@@H](n2ccc(=O)[nH]c2=O)[C@](C)(F)[C@@H]1O)Oc1ccccc1 [Amorphous]
XRPD analysis, sample after storage at 40° C./75% RH for 18 h [1]: amorphous | Visual aspect, sample after storage at 40° C./75% RH for 18 h [1]: gel/gum*^) | Visual aspect, sample before storage at 40° C./75% RH [1]: white powder | XRPD analysis, sample before storage at 40° C./75% RH [1]: amorphous

CC(C)OC(=O)[C@H](C)N[P@](=O)(OC[C@H]1O[C@@H](n2ccc(=O)[nH]c2=O)[C@](C)(F)[C@@H]1O)Oc1ccccc1 [Form 1]
XRPD analysis, sample after storage at 40° C./75% RH for 18 h [1]: amorphous | Visual aspect, sample after storage at 40° C./75% RH for 18 h [1]: gel/gum*^) | Visual aspect, sample before storage at 40° C./75% RH [1]: white powder | XRPD analysis, sample before storage at 40° C./75% RH [1]: crystalline, Form 1

CC(C)OC(=O)[C@H](C)N[P@](=O)(OC[C@H]1O[C@@H](n2ccc(=O)[nH]c2=O)[C@](C)(F)[C@@H]1O)Oc1ccccc1 [Form 6]
XRPD analysis, sample after storage at 40° C./75% RH for 18 h [1]: crystalline, Form 6 | Visual aspect, sample after storage at 40° C./75% RH for 18 h [1]: white powder | Visual aspect, sample before storage at 40° C./75% RH [1]: white powder | XRPD analysis, sample before storage at 40° C./75% RH [1]: crystalline, Form 6

CC(C)OC(=O)[C@H](C)N[P@](=O)(OC[C@H]1O[C@@H](n2ccc(=O)[nH]c2=O)[C@](C)(F)[C@@H]1O)Oc1ccccc1 [Form 7]
XRPD analysis, sample after storage at 40° C./75% RH for 18 h [1]: crystalline, Form 7 | Visual aspect, sample after storage at 40° C./75% RH for 18 h [1]: white powder | Visual aspect, sample before storage at 40° C./75% RH [1]: white powder | XRPD analysis, sample before storage at 40° C./75% RH [1]: crystalline, Form 7

CC(C)OC(=O)[C@H](C)N[P@](=O)(OC[C@H]1O[C@@H](n2ccc(=O)[nH]c2=O)[C@](C)(F)[C@@H]1O)Oc1ccccc1 [sofosbuvir, (S)-isopropyl 2-(((S)-(((2R,3R,4R,5R)-5-(2,4-dioxo-3,4-dihydropyrimidin-1(2H)-yl)-4-fluoro-3-hydroxy-4-methyltetrahydrofuran-2-yl)methoxy)(phenoxy)phosphoryl)-amino)propanoate]
behaviour under stress conditions (deliquescence) [2]: deliquesces after a few hours
